Results from publication PMC5218480 (PLoS ONE, 2017).

Tested on: MV-4-11 cells
Assay: Gene expression microarray analysis (Affymetrix PrimeView) and GSEA
Format: cell-based, human
Design: RFU PODN (11730768_x_at) / Fold change /veh PODN (11730768_x_at) / RFU LINC00158 (11744669_a_at) / Fold change /veh LINC00158 (11744669_a_at) / RFU DUSP10 (11751237_a_at) / Fold change /veh DUSP10 (11751237_a_at) / RFU ID3 (11757404_x_at) / Fold change /veh ID3 (11757404_x_at) / RFU PLEKHG5 (11737974_s_at) / Fold change /veh PLEKHG5 (11737974_s_at) / RFU LRRC4B (11730491_at) / Fold change /veh LRRC4B (11730491_at) / RFU GIMAP4 (11747438_a_at) / Fold change /veh GIMAP4 (11747438_a_at) / RFU KRT8 (11758183_x_at) / Fold change /veh KRT8 (11758183_x_at) / RFU CNN1 (11734310_a_at) / Fold change /veh CNN1 (11734310_a_at) / RFU VPS37D (11726825_at) / Fold change /veh VPS37D (11726825_at) / RFU C10orf10 (11716522_x_at) / Fold change /veh C10orf10 (11716522_x_at) / RFU KIR2DL2 /// KIR2DL4 /// KIR2DL5A /// KIR2DL5B /// KIR2DS1 /// KIR2DS2 /// KIR2DS3 /// KIR2DS4 /// KIR3DL3 /// KIR3DL3 /// KIR3DS1 (11738374_at) / Fold change /veh KIR2DL2 /// KIR2DL4 /// KIR2DL5A /// KIR2DL5B /// KIR2DS1 /// KIR2DS2 /// KIR2DS3 /// KIR2DS4 /// KIR3DL3 /// KIR3DL3 /// KIR3DS1 (11738374_at) / RFU C1QL1 (11718748_at) / Fold change /veh C1QL1 (11718748_at) / RFU TMPRSS4 (11747572_a_at) / Fold change /veh TMPRSS4 (11747572_a_at) / RFU HAMP (11756126_x_at) / Fold change /veh HAMP (11756126_x_at) / RFU RNFT2 (11725882_a_at) / Fold change /veh RNFT2 (11725882_a_at) / RFU NR4A2 (11747474_a_at) / Fold change /veh NR4A2 (11747474_a_at) / RFU ABCC12 (11746883_a_at) / Fold change /veh ABCC12 (11746883_a_at) / RFU TMEM136 (11760407_x_at) / Fold change /veh TMEM136 (11760407_x_at) / RFU CLDN22 /// WWC2 (11732394_at) / Fold change /veh CLDN22 /// WWC2 (11732394_at) / RFU HLA-DPB1 (11760878_x_at) / Fold change /veh HLA-DPB1 (11760878_x_at) / RFU SPINT1 (11716480_a_at) / Fold change /veh SPINT1 (11716480_a_at) / RFU GAP43 (11754022_s_at) / Fold change /veh GAP43 (11754022_s_at) / RFU A4GNT (11735810_at) / Fold change /veh A4GNT (11735810_at) / RFU PRB3 (11715151_x_at) / Fold change /veh PRB3 (11715151_x_at) / RFU TUBB4B (11761932_at) / Fold change /veh TUBB4B (11761932_at) / RFU CAPN14 (11732068_a_at) / Fold change /veh CAPN14 (11732068_a_at) / RFU TMCC2 (11721928_a_at) / Fold change /veh TMCC2 (11721928_a_at) / RFU IRGQ (11745062_a_at) / Fold change /veh IRGQ (11745062_a_at) / RFU FAM174B (11720279_a_at) / Fold change /veh FAM174B (11720279_a_at) / RFU TMPRSS4 (11748680_a_at) / Fold change /veh TMPRSS4 (11748680_a_at) / RFU FAM212B (11763350_a_at) / Fold change /veh FAM212B (11763350_a_at) / RFU PLEKHG5 (11743358_a_at) / Fold change /veh PLEKHG5 (11743358_a_at) / RFU ZSCAN30 (11745921_a_at) / Fold change /veh ZSCAN30 (11745921_a_at) / RFU CMKLR1 (11741424_a_at) / Fold change /veh CMKLR1 (11741424_a_at) / RFU LOC101060620 /// MAPK8IP1 (11723275_at) / Fold change /veh LOC101060620 /// MAPK8IP1 (11723275_at) / RFU SPTSSB (11747773_x_at) / Fold change /veh SPTSSB (11747773_x_at) / RFU PRSS12 (11739890_at) / Fold change /veh PRSS12 (11739890_at) / RFU BIN1 (11741810_x_at) / Fold change /veh BIN1 (11741810_x_at) / RFU WNT11 (11732464_a_at) / Fold change /veh WNT11 (11732464_a_at) / RFU C10orf10 (11716521_a_at) / Fold change /veh C10orf10 (11716521_a_at) / RFU C5orf56 (11738089_at) / Fold change /veh C5orf56 (11738089_at) / RFU CYB561 (11721691_x_at) / Fold change /veh CYB561 (11721691_x_at) / RFU ANKRD19P (11752326_a_at) / Fold change /veh ANKRD19P (11752326_a_at) / RFU OR2T12 /// OR2T33 /// OR2T8 (11738714_s_at) / Fold change /veh OR2T12 /// OR2T33 /// OR2T8 (11738714_s_at) / RFU VCAN (11748164_a_at) / Fold change /veh VCAN (11748164_a_at) / RFU JSRP1 (11732532_at) / Fold change /veh JSRP1 (11732532_at) / RFU KRTAP10-11 (11738290_x_at) / Fold change /veh KRTAP10-11 (11738290_x_at) / RFU MYO3A (11730013_a_at) / Fold change /veh MYO3A (11730013_a_at) / RFU EBF3 (11725865_a_at) / Fold change /veh EBF3 (11725865_a_at) / RFU CAMK2N1 (11719241_x_at) / Fold change /veh CAMK2N1 (11719241_x_at) / RFU C5orf56 (11738088_a_at) / Fold change /veh C5orf56 (11738088_a_at) / RFU OLFML3 (11715873_a_at) / Fold change /veh OLFML3 (11715873_a_at) / RFU LOC100653217 /// NTM (11731650_a_at) / Fold change /veh LOC100653217 /// NTM (11731650_a_at) / RFU MAPK11 (11762145_a_at) / Fold change /veh MAPK11 (11762145_a_at) / RFU FIZ1 (11724087_x_at) / Fold change /veh FIZ1 (11724087_x_at) / RFU OASL (11726364_x_at) / Fold change /veh OASL (11726364_x_at) / RFU SOX15 (11748057_x_at) / Fold change /veh SOX15 (11748057_x_at) / RFU CD79A (11719716_a_at) / Fold change /veh CD79A (11719716_a_at) / RFU HIST1H1D (11736915_at) / Fold change /veh HIST1H1D (11736915_at) / RFU CASKIN2 (11723855_a_at) / Fold change /veh CASKIN2 (11723855_a_at) / RFU LOC730098 (11760151_x_at) / Fold change /veh LOC730098 (11760151_x_at) / RFU OR4N2 (11742367_at) / Fold change /veh OR4N2 (11742367_at) / RFU PRRT2 (11749266_a_at) / Fold change /veh PRRT2 (11749266_a_at) / RFU SNX32 (11753110_a_at) / Fold change /veh SNX32 (11753110_a_at) / RFU CDHR5 (11726645_a_at) / Fold change /veh CDHR5 (11726645_a_at) / RFU RCAN1 (11760418_a_at) / Fold change /veh RCAN1 (11760418_a_at) / RFU FAM167A (11723789_a_at) / Fold change /veh FAM167A (11723789_a_at) / RFU FAM26E (11764081_at) / Fold change /veh FAM26E (11764081_at) / RFU ISYNA1 (11749810_s_at) / Fold change /veh ISYNA1 (11749810_s_at) / RFU ACY1 (11761880_at) / Fold change /veh ACY1 (11761880_at) / RFU 11764098_at / Fold change /veh 11764098_at / RFU SAMD14 (11745864_x_at) / Fold change /veh SAMD14 (11745864_x_at) / RFU NPB (11741838_a_at) / Fold change /veh NPB (11741838_a_at) / RFU TMPRSS6 (11731388_a_at) / Fold change /veh TMPRSS6 (11731388_a_at) / RFU KRTAP10-2 (11738614_at) / Fold change /veh KRTAP10-2 (11738614_at) / RFU ARHGAP8 /// PRR5-ARHGAP8 (11727945_x_at) / Fold change /veh ARHGAP8 /// PRR5-ARHGAP8 (11727945_x_at) / RFU KRTAP5-7 /// NADSYN1 (11734609_at) / Fold change /veh KRTAP5-7 /// NADSYN1 (11734609_at) / RFU RASL12 (11751679_a_at) / Fold change /veh RASL12 (11751679_a_at) / RFU CDKN2B (11736163_a_at) / Fold change /veh CDKN2B (11736163_a_at) / RFU PRF1 (11729649_at) / Fold change /veh PRF1 (11729649_at) / RFU, ZNF638 /// ZNF638-IT1 / Fold change vs veh, ZNF638 /// ZNF638-IT1 / RFU, PANK3 / Fold change vs veh, PANK3 / RFU, SH3YL1 / Fold change vs veh, SH3YL1 / RFU, ZEB2 / Fold change vs veh, ZEB2 / RFU, NRIP1 / Fold change vs veh, NRIP1 / RFU, PTTG1IP / Fold change vs veh, PTTG1IP / RFU, CAPN2 / Fold change vs veh, CAPN2 / RFU, MED14 / Fold change vs veh, MED14 / RFU, SNORA58 / Fold change vs veh, SNORA58 / RFU, C1orf63 / Fold change vs veh, C1orf63 / RFU, LRRFIP1 / Fold change vs veh, LRRFIP1 / RFU, NDUFAF7 / Fold change vs veh, NDUFAF7 / RFU, SLC12A2 / Fold change vs veh, SLC12A2 / RFU, IBTK / Fold change vs veh, IBTK / RFU, ESF1 / Fold change vs veh, ESF1 / Fold change vs veh, TMEM50B / RFU, TAOK1 / Fold change vs veh, TAOK1 / RFU, ACBD3 / Fold change vs veh, ACBD3 / RFU, TMA16 / Fold change vs veh, TMA16 / RFU, RWDD3 / Fold change vs veh, RWDD3 / RFU, BCAT1 / Fold change vs veh, BCAT1 / RFU, EDEM3 / Fold change vs veh, EDEM3 / RFU, TMEM33 / Fold change vs veh, TMEM33 / RFU, WDR75 / Fold change vs veh, WDR75 / RFU, AHCTF1 / Fold change vs veh, AHCTF1 / RFU, TFRC / Fold change vs veh, TFRC / RFU, ZDHHC17 / Fold change vs veh, ZDHHC17 / RFU, NOM1 / Fold change vs veh, NOM1 / RFU, ARL8B / Fold change vs veh, ARL8B / RFU, ZBTB11 / Fold change vs veh, ZBTB11 / RFU, TAMM41 / Fold change vs veh, TAMM41 / RFU, KIAA1704 /// LOC100996395 / Fold change vs veh, KIAA1704 /// LOC100996395 / RFU, ING1 / Fold change vs veh, ING1 / RFU, TRMT61B / Fold change vs veh, TRMT61B / RFU, FUBP3 / Fold change vs veh, FUBP3 / RFU, TP53 / Fold change vs veh, TP53 / RFU, TNKS2 / Fold change vs veh, TNKS2 / RFU, ZFP14 / Fold change vs veh, ZFP14 / RFU, ACTR2 / Fold change vs veh, ACTR2 / RFU, PPP3R1 / Fold change vs veh, PPP3R1 / RFU, PIK3R1 / Fold change vs veh, PIK3R1 / RFU, HNRNPA1 / Fold change vs veh, HNRNPA1 / RFU, RNF170 / Fold change vs veh, RNF170 / RFU, ZNF28 / Fold change vs veh, ZNF28 / RFU, RNGTT / Fold change vs veh, RNGTT / RFU, OGT / Fold change vs veh, OGT / RFU, BRD1 / Fold change vs veh, BRD1 / RFU, MARS / Fold change vs veh, MARS / RFU, ZNF655 / Fold change vs veh, ZNF655 / RFU, FAHD1 / Fold change vs veh, FAHD1 / RFU, BDP1 / Fold change vs veh, BDP1 / RFU, LRRCC1 / Fold change vs veh, LRRCC1 / RFU, ARID1A / Fold change vs veh, ARID1A / RFU, ZNF146 / Fold change vs veh, ZNF146 / RFU, ZNF330 / Fold change vs veh, ZNF330 / RFU, GPN3 / Fold change vs veh, GPN3 / RFU, C9orf123 / Fold change vs veh, C9orf123 / RFU, N4BP2L2 / Fold change vs veh, N4BP2L2 / RFU, ARFIP1 / Fold change vs veh, ARFIP1 / RFU, FAM179B / Fold change vs veh, FAM179B / RFU, BCL10 / Fold change vs veh, BCL10 / RFU, UHRF1BP1L / Fold change vs veh, UHRF1BP1L / RFU, BET1 / Fold change vs veh, BET1 / RFU, CNOT2 / Fold change vs veh, CNOT2 / RFU, ZNF268 / Fold change vs veh, ZNF268 / Fold change vs veh, ZNF507 / RFU, DGCR2 / Fold change vs veh, DGCR2 / RFU, WDSUB1 / Fold change vs veh, WDSUB1 / Fold change vs veh, HSP90B1 /// MIR3652 / RFU, ADSS / Fold change vs veh, ADSS / RFU, GK / Fold change vs veh, GK / RFU, ZNF148 / Fold change vs veh, ZNF148 / RFU, TAF9 / Fold change vs veh, TAF9 / RFU, SLC1A5 / Fold change vs veh, SLC1A5 / RFU, SLMO2 / Fold change vs veh, SLMO2 / RFU, ABCC4 / Fold change vs veh, ABCC4 / RFU, LOC101060439 /// RAP1B / Fold change vs veh, LOC101060439 /// RAP1B / RFU, RFX7 / Fold change vs veh, RFX7 / RFU, GTPBP10 / Fold change vs veh, GTPBP10 / RFU, CNEP1R1 / Fold change vs veh, CNEP1R1 / RFU, BIVM-ERCC5 /// ERCC5 / Fold change vs veh, BIVM-ERCC5 /// ERCC5 / RFU, ILF3 / Fold change vs veh, ILF3 / RFU 11762660_at / Fold change /veh 11762660_at / RFU VCAN (11757783_s_at) / Fold change /veh VCAN (11757783_s_at) / RFU DDX43 (11728927_at) / Fold change /veh DDX43 (11728927_at) / RFU KRT8 (11758188_x_at) / Fold change /veh KRT8 (11758188_x_at) / RFU NKD1 (11759106_at) / Fold change /veh NKD1 (11759106_at) / RFU SRD5A1 (11742802_a_at) / Fold change /veh SRD5A1 (11742802_a_at) / RFU TPSAB1 /// TPSB2 (11721975_s_at) / Fold change /veh TPSAB1 /// TPSB2 (11721975_s_at) / RFU GSTM3 (11746129_a_at) / Fold change /veh GSTM3 (11746129_a_at) / RFU IL23R (11737362_x_at) / Fold change /veh IL23R (11737362_x_at) / RFU TMEM51 (11727254_a_at) / Fold change /veh TMEM51 (11727254_a_at) / RFU PIWIL2 (11732686_x_at) / Fold change /veh PIWIL2 (11732686_x_at) / RFU ORM1 (11744905_x_at) / Fold change /veh ORM1 (11744905_x_at) / RFU CCDC152 (11743942_at) / Fold change /veh CCDC152 (11743942_at) / RFU ECM1 (11717891_a_at) / Fold change /veh ECM1 (11717891_a_at) / RFU IL23R (11748794_a_at) / Fold change /veh IL23R (11748794_a_at) / RFU TNFAIP8L3 (11732012_x_at) / Fold change /veh TNFAIP8L3 (11732012_x_at) / RFU MBOAT4 (11741988_at) / Fold change /veh MBOAT4 (11741988_at) / RFU 11764193_at / Fold change /veh 11764193_at / RFU TMEM53 (11763286_at) / Fold change /veh TMEM53 (11763286_at) / RFU MAGEB2 (11727129_at) / Fold change /veh MAGEB2 (11727129_at) / RFU TMEM200A (11744735_a_at) / Fold change /veh TMEM200A (11744735_a_at) / RFU CCDC152 (11751479_a_at) / Fold change /veh CCDC152 (11751479_a_at) / RFU FAM211A (11726209_a_at) / Fold change /veh FAM211A (11726209_a_at) / RFU RGS16 (11746705_a_at) / Fold change /veh RGS16 (11746705_a_at) / RFU VCAN (11755009_s_at) / Fold change /veh VCAN (11755009_s_at) / RFU RHOB (11743442_s_at) / Fold change /veh RHOB (11743442_s_at) / RFU RGS16 (11720943_a_at) / Fold change /veh RGS16 (11720943_a_at) / RFU RGS16 (11720944_at) / Fold change /veh RGS16 (11720944_at) / RFU, VPS4B / Fold change vs veh, VPS4B / RFU, CREB1 / Fold change vs veh, CREB1 / RFU, DNAJC13 / Fold change vs veh, DNAJC13 / RFU, GNAQ / Fold change vs veh, GNAQ / RFU, CDK5R1 / Fold change vs veh, CDK5R1 / RFU, ZRANB3 / Fold change vs veh, ZRANB3 / RFU, CUL4A / Fold change vs veh, CUL4A / RFU, CCNY / Fold change vs veh, CCNY / RFU, UFL1 / Fold change vs veh, UFL1 / RFU, COG3 / Fold change vs veh, COG3 / RFU, DIAPH2 / Fold change vs veh, DIAPH2 / RFU, SKA2 / Fold change vs veh, SKA2 / RFU, AFF3 / Fold change vs veh, AFF3 / RFU, LMF1 / Fold change vs veh, LMF1 / RFU, IPO11 / Fold change vs veh, IPO11 / RFU, DFFB / Fold change vs veh, DFFB / RFU, FOXP1 / Fold change vs veh, FOXP1 / RFU, CARD8 / Fold change vs veh, CARD8 / RFU, STRN3 / Fold change vs veh, STRN3 / RFU, ADK / Fold change vs veh, ADK / RFU, RASSF2 / Fold change vs veh, RASSF2 / RFU, WIPF1 / Fold change vs veh, WIPF1 / RFU, LARP1B / Fold change vs veh, LARP1B / RFU, RASA1 / Fold change vs veh, RASA1 / RFU, RB1 / Fold change vs veh, RB1 / RFU, PPFIA1 / Fold change vs veh, PPFIA1 / RFU, MAT2A / Fold change vs veh, MAT2A / RFU, CCT5 / Fold change vs veh, CCT5 / RFU, WDR92 / Fold change vs veh, WDR92 / RFU, CUX1 / Fold change vs veh, CUX1 / RFU, TTC7A / Fold change vs veh, TTC7A / RFU, TMEM135 / Fold change vs veh, TMEM135 / RFU, DEPTOR / Fold change vs veh, DEPTOR / RFU, CPM / Fold change vs veh, CPM / RFU, DNAJB6 / Fold change vs veh, DNAJB6 / RFU, CACNA2D3 / Fold change vs veh, CACNA2D3 / RFU, DTX4 / Fold change vs veh, DTX4 / RFU, TFCP2 / Fold change vs veh, TFCP2 / RFU, GMCL1 /// GMCL1P1 / Fold change vs veh, GMCL1 /// GMCL1P1 / RFU, AEBP2 / Fold change vs veh, AEBP2 / RFU, SNHG1 /// SNORD22 /// SNORD25 /// SNORD26 /// SNORD27 /// SNORD28 /// SNORD29 /// SNORD31 / Fold change vs veh, SNHG1 /// SNORD22 /// SNORD25 /// SNORD26 /// SNORD27 /// SNORD28 /// SNORD29 /// SNORD31 / Fold change (Aza/veh), C12orf56 (ProbeSet 11735607_a_at) / Fold change (ACY-1035/veh), C12orf56 (ProbeSet 11735607_a_at) / Fold change (Aza/veh), FGFR1OP (ProbeSet 11751329_s_at) / Fold change (ACY-1035/veh), FGFR1OP (ProbeSet 11751329_s_at) / Fold change (Aza/veh), VPS36 (ProbeSet 11739960_a_at) / Fold change (ACY-1035/veh), VPS36 (ProbeSet 11739960_a_at) / RFU SYPL1 (11715823_x_at) / Fold change /veh SYPL1 (11715823_x_at) / RFU IGFBP7 (11715501_s_at) / Fold change /veh IGFBP7 (11715501_s_at) / RFU REEP3 (11722064_at) / Fold change /veh REEP3 (11722064_at) / RFU IGLL1 (11728026_x_at) / Fold change /veh IGLL1 (11728026_x_at): dose or concentration left out as unconfirmed
Settings: ProbeSet 11720566_at; LIST D

Nc1ncn([C@@H]2O[C@H](CO)[C@@H](O)[C@H]2O)c(=O)n1 [azacitidine]
Fold change vs veh, BCAT1: 0.67
